Several values for one entry are separate records, joined by “and”; a condition that tells them apart may be missing. Equal entries are not always repeated.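 Assay format: 96-well plates, 48-hour exposure. Here, GI50 denotes the concentration required for 50% inhibition of growth. TGI denotes the concentration required for complete inhibition of growth.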
Experiments:
Experiment in all cases: NCI tumour cell line growth inhibition, 48 h
DLD-1 colon = tested on: DLD-1 colon
DMS 273 small cell lung = tested on: DMS 273 small cell lung
HOP-18 NSCLC = tested on: HOP-18 NSCLC
KM20L2 colon = tested on: KM20L2 colon
LXFL 529 NSCLC = tested on: LXFL 529 NSCLC
MDA-N = tested on: MDA-N
DMS 114 small cell lung = tested on: DMS 114 small cell lung
RXF-631 renal = tested on: RXF-631 renal
XF 498 CNS = tested on: XF 498 CNS
P388/ADR leukemia = tested on: P388/ADR leukemia

SMILES	TGI (DLD-1 colon)	TGI (DMS 273 small cell lung) [µM]	TGI (HOP-18 NSCLC)	TGI (KM20L2 colon)	TGI (LXFL 529 NSCLC) [µM]	TGI (MDA-N)	TGI (DMS 114 small cell lung)	TGI (RXF-631 renal) [µM]	TGI (XF 498 CNS)	GI50 (MDA-N) [µM]	GI50 (DLD-1 colon) [µM]	GI50 (DMS 114 small cell lung) [µM]	GI50 (LXFL 529 NSCLC) [µM]	GI50 (RXF-631 renal) [µM]	TGI (P388/ADR leukemia) [µM]
CN(C)CC1CCC/C1=N\O (stereo unspecified)	> 100 µM	> 100	> 100 µM	> 100 µM	> 100	–	–	–	–	–	–	–	–	–	–
COC(=O)c1nc(Cl)nc(Cl)c1Cl	–	–	–	–	–	76.8 µM	–	–	–	–	–	–	–	–	–
COC1C2C=CC(C2)[C@H]1[N+](=O)[O-] (stereo partly specified)	> 100 µM	> 100	–	> 100 µM	> 100	–	> 100 µM	> 100	–	–	–	–	–	–	–
C[C@]12CCCC(=O)C1(O)C[C@H](C(=O)O)CC2 (stereo partly specified)	> 100 µM	> 100	> 100 µM	> 100 µM	> 100	–	> 100 µM	> 100	> 100 µM	–	–	–	–	–	–
Cc1cc(C)c(C(=O)c2no[n+]([O-])c2C(=O)c2c(C)cc(C)c(Br)c2C)c(C)c1Br	30.7 µM	45.1	–	32.9 µM	23.7	–	23.4 µM	35.7	–	–	–	–	–	–	–
CCC[n+]1cc2cc(OC)c(OC)cc2c2c1-c1cc3c(cc1C2)OCO3	–	–	–	–	–	11 µM	–	–	–	2.83	–	–	–	–	–
CCOP(=O)(OCC)OC(C#N)c1ccc(-c2ccccc2)cc1 (stereo unspecified)	36.9 µM	27.5	98.2 µM	> 100 µM	32	–	29.6 µM	–	50.1 µM	–	–	–	–	–	–
Nc1ccc(C(=O)CC(N)C(=O)O)cc1O (stereo unspecified)	–	–	–	–	–	> 100 µM	–	–	–	–	–	–	–	–	–
O=C(N/N=C(/CCN1CCCC1)CC(c1ccccc1)c1c(O)c2ccccc2oc1=O)c1ccncc1 (stereo unspecified)	> 100 µM	–	> 100 µM	> 100 µM	> 100	–	–	–	–	–	–	–	–	–	–
COc1ccc(-c2oc3c(OC)c(OC)c(OC)c(OC)c3c(=O)c2OC)cc1OC	–	–	–	–	–	> 100 µM	–	–	–	–	–	–	–	–	–
CC[C@]1(O)C(=O)OCc2c1cc1n(c2=O)Cc2cc3c(N)cccc3nc2-1	> 100 µM	> 100	> 100 µM	> 100 µM	> 100	–	> 100 µM	> 100	> 100 µM	–	–	–	–	–	–
O=C1C(c2ccccc2)=[N+]([O-])c2ccccc21	–	–	–	–	–	12.8 µM	–	–	–	–	–	–	–	–	–
CCN(CC)C(=S)SC	–	–	–	–	–	> 100 µM	–	–	–	–	–	–	–	–	–
COC(=O)[C@]12CCC(C)[C@H](C)[C@H]1C1=CCC3[C@@]4(C)CC[C@H](OC(C)=O)C(C)(C)C4CC[C@@]3(C)C1(C)C(O)C2 (stereo partly specified)	> 100 µM	> 100	> 100 µM	> 100 µM	> 100	–	> 100 µM	–	> 100 µM	–	–	–	–	–	–
CCCCN(CCCC)c1c([N+](=O)[O-])c(=O)nc2ccccn12	> 100 µM	–	–	> 100 µM	> 100	–	49.6 µM	79.8	79.6 µM	–	–	–	–	–	–
CC(=O)NC(CCCCNC(=O)NCCCl)C(=O)NCc1ccccc1 (stereo unspecified)	> 100 µM	> 100	> 100 µM	> 100 µM	> 100	–	> 100 µM	> 100	> 100 µM	–	–	–	–	–	–
COc1ccc(/C=C\c2cc(OC)c(O[Si](C)(C)C(C)(C)C)c(OC)c2)cc1	> 100 µM	> 100	–	> 100 µM	> 100	–	91.4 µM	> 100	49.5 µM	–	–	–	–	–	–
CC(=O)OCC(OC(C)=O)C(OC(C)=O)C(OC(C)=O)C(=O)CNn1c(-c2ccccc2Cl)nc2ccccc2c1=O (stereo unspecified)	–	> 100	–	> 100 µM	> 100	–	> 100 µM	–	–	–	–	–	–	–	–
COC1OC(CO)C(O)C1N (stereo unspecified)	> 100 µM	–	> 100 µM	> 100 µM	> 100	–	> 100 µM	> 100	–	–	–	–	–	–	–
CN(C)/N=C(/c1nc2ccc(Cl)cc2[nH]c1=O)C(O)c1ccc(C(O)/C(=N\N(C)C)c2nc3ccc(Cl)cc3[nH]c2=O)cc1 (stereo unspecified)	> 100 µM	–	–	> 100 µM	–	–	> 100 µM	> 100	–	–	–	–	–	–	–
O=C(c1ccncc1)n1nc(-c2ccccc2)c(N=Nc2ccccc2[N+](=O)[O-])c1-c1ccccc1	> 100 µM	> 100	–	–	> 100	–	> 100 µM	> 100	> 100 µM	–	–	–	–	–	–

SMILES	TGI (DLD-1 colon)	TGI (DMS 273 small cell lung) [µM]	TGI (HOP-18 NSCLC)	TGI (KM20L2 colon)	TGI (LXFL 529 NSCLC) [µM]	TGI (MDA-N)	TGI (DMS 114 small cell lung)	TGI (RXF-631 renal) [µM]	TGI (XF 498 CNS)	GI50 (MDA-N) [µM]	GI50 (DLD-1 colon) [µM]	GI50 (DMS 114 small cell lung) [µM]	GI50 (LXFL 529 NSCLC) [µM]	GI50 (RXF-631 renal) [µM]	TGI (P388/ADR leukemia) [µM]
Cc1ccccc1C1=C(C(=O)Nc2ccc(Cl)c(Cl)c2)NC(=S)NC1N (stereo unspecified)	> 100 µM	> 100	> 100 µM	> 100 µM	> 100	–	> 100 µM	> 100	> 100 µM	–	–	–	–	–	–
COC(=O)C(=O)C(C(=O)C(=O)Nc1cccc(C(C)=O)c1)c1nc2ccccc2[nH]c1=O (stereo unspecified)	> 100 µM	> 100	> 100 µM	> 100 µM	> 100	–	> 100 µM	> 100	–	–	–	–	–	–	–
CCOC(=O)c1cc(/C=C/C(C)=C/C(=O)OC)oc1C	> 100 µM	–	–	> 100 µM	> 100	–	> 100 µM	–	> 100 µM	–	–	–	–	–	–
Cc1cccc(C)c1NC(=O)C1C(=O)N(c2c(C)cccc2C)C(=O)/C1=N\NC(N)=S (stereo unspecified)	> 100 µM	–	> 100 µM	> 100 µM	> 100	–	> 100 µM	–	–	–	–	–	–	–	–
N#CCCN(CCC#N)c1ccc(C(Sc2ccccc2)C(NC(=O)c2cc([N+](=O)[O-])ccc2Cl)C(=O)Sc2ccccc2)cc1 (stereo unspecified)	9.43 µM and 4.58 µM	5.15	47.3 µM	6.47 µM and 11.3 µM	11.9	–	7.78 µM and 4.1 µM	4.01	21.3 µM	–	1.8	1.34	1.63	1.53	–
NC(=S)NNc1c([N+](=O)[O-])cnn(-c2ccccc2)c1=O	28.5 µM	33.8	–	29.8 µM	21.1	–	33.2 µM	–	32.6 µM	–	–	–	–	–	–
CCN(CC)C(=S)Oc1cc2oc(=O)cc(C)c2cc1Cl	–	–	–	–	–	> 100 µM	–	–	–	–	–	–	–	–	–
CN1CC[C@]2(C)c3ccc(O)cc3CC3CCCC1C32C (stereo partly specified)	> 100 µM	–	> 100 µM	> 100 µM	> 100	–	> 100 µM	> 100	> 100 µM	–	–	–	–	–	–
Cc1ccc(-c2cc(-c3ccccc3)c(C#N)c(=O)n2C2OC(CO)C(O)C(O)C2O)cc1 (stereo unspecified)	> 100 µM	> 100	> 100 µM	> 100 µM	> 100	–	> 100 µM	> 100	–	–	–	–	–	–	–
C/C=C1\NC(=O)[C@H]2CSSCCC=C[C@H](CC(=O)N[C@H](C(C)C)C(=O)N2)OC(=O)[C@H](C(C)C)NC1=O	0.289 µM	0.0102	0.054 µM and 0.0719 µM	0.00796 µM	–	0.0176 µM and < 0.0319 µM	0.00885 µM	–	0.0155 µM and 0.0624 µM	–	0.0102	–	–	–	0.125
OC1(c2ccccc2)OC(C#Cc2ccccc2)(c2ccccc2)c2ccccc21 (stereo unspecified)	11.2 µM	12.1	–	13.6 µM	19.2	–	9.01 µM	13.3	19.8 µM	–	–	–	–	–	–
O=c1cccc(C2CC(CO)C3CCCCN3C2)[nH]1 (stereo unspecified)	–	–	–	–	–	> 100 µM	–	–	–	–	–	–	–	–	–
NC(N)=NCCC1OC(=O)C2=C1c1c(O)ccc3nccc(c13)O2 (stereo unspecified)	–	–	–	–	–	> 100 µM	–	–	–	> 100	–	–	–	–	–
CCC1=NC(CO)[C@H](c2ccccc2)O1 (stereo partly specified)	> 100 µM	> 100	> 100 µM	> 100 µM	–	–	> 100 µM	–	> 100 µM	–	–	–	–	–	–
Cc1cccc(-n2c(=S)[nH]c3c(sc(=O)n3-c3ccccc3C)c2=O)c1	> 100 µM	> 100	> 100 µM	> 100 µM	> 100	–	> 100 µM	> 100	–	–	–	–	–	–	–
C/C(=N\N(c1ccccc1)c1ccccc1)c1c(O)cc(C)oc1=O	> 100 µM	–	> 100 µM	> 100 µM	> 100	–	–	–	–	–	–	–	–	–	–
COc1ccc(/C=C2\CCCC(C(NO)c3ccc(OC)cc3)C2=NO)cc1 (stereo unspecified)	> 100 µM	> 100	> 100 µM	> 100 µM	> 100	–	> 100 µM	> 100	–	–	–	–	–	–	–
NCCCCNc1ccc2c(=O)[nH][nH]c(=O)c2c1	> 100 µM	> 100	> 100 µM	> 100 µM	> 100	–	> 100 µM	–	–	–	–	–	–	–	–
CC1=C(C(=O)Nc2cccc(Cl)c2)C(c2ccccc2F)C(C(=O)Nc2cccc(Cl)c2)=C(C)N1	28.8 µM	26.4	–	24.3 µM	23.4	–	30.6 µM	22.6	–	–	–	–	–	–	–
COc1ccc(N2C(=O)[C@H]3CC(C)c4c([nH]c5ccccc45)[C@H]3C2=O)cc1 (stereo partly specified)	> 41.5 µM	17.2	–	12.7 µM	26.8	3.4 µM	7.32 µM	–	22.4 µM	–	–	–	–	–	–
COc1ccc(Cn2c3c(cc(OS(=O)(=O)C(F)(F)F)c2=O)Cc2ccccc2-3)cc1	–	–	–	–	–	50 µM and > 100 µM	–	–	–	7.55	–	–	–	–	–

Reference: PubChem BioAssay (NCI)
